Test results published in patent publication US12071436B2, “Anti-parasitic compounds and uses thereof” (Memorial Sloan-Kettering Cancer Center, priority 2016, dated 2024).
Read-outs that look alike come from different tables or passages of the source.

Assays:
[1] = system: P. falciparum Dd2; assay: Anti-plasmodial growth inhibition, SYBR green I-based DNA quantification; assay type: cell-based; conditions: Plasmodium falciparum, 72 h incubation, n=3
Method: (§1) Select compounds described herein were evaluated for structure-activity analyses for anti-plasmodial activity in vitro. For Dd2 EC50 (M), calculations were for n=3. For HepG2 EC50 (M), calculations were for n=1. For the human microsomal stability determination, t was 60 minutes.
Different dilutions of the compound in RPMI 1640 (Life Technologies) from a stock of 10 mM in dimethyl sulfoxide (DMSO) were added to the culture at a 1% parasitemia and 2% hematocrit in 96-well black plates (Santa Cruz Biotechnology). Maximum DMSO concentration in the culture never exceeded 0.25%. Chloroquine at 1 μM was used as a positive control to determine the baseline value. Following 72 h incubation at 37° C., the ability of the compounds to inhibit growth of the parasite was determined by a SYBR green I-based DNA quantification assay (See Bennett et al., 2004, Chemother. 48, 1807-1810; see also Johnson et al., 2007, Antimicrob. Agents. Chemother. 51, 1926-1933; Smilkstein et al., 2004, Antimicrob. Agents. Chemother. 48, 1803-1806). EC50 was calculated (n=3) from a dose response curve that was generated from a concentration range of 0-20 μM using GraphPad Prism v5.0.

[2] = system: HepG2 human hepatoma cells; assay: HepG2 cytotoxicity, MTS cell proliferation assay; assay type: cell-based; conditions: 48 h, n=1
Method: as §1
Selected compounds were evaluated for cytotoxicity using HepG2 human hepatoma cells. A 384-well clear bottom plate was seeded with 2,500 cells/well and incubated for 24 h. Serial dilutions of the compound (were added to the plate and plates were incubated for an additional 48 h. Viability of cells were assessed by MTS [(3-(4,5-dimethylthiazol-2-yl)-5-(3-carboxymethoxyphenyl)-2-(4-sulfophenyl)-2H-tetrazolium) cell proliferation assay (CellTiter 96® Aqueous non-radioactive cell proliferation assay, Promega) (See Cory et al., Cancer Communications, 3, 1991, p. 207-212).

[3] = Plasma pharmacokinetics and liver distribution study in female BALB/c mice; assay type: in vivo, mouse; conditions: for AUC(0-inf) / Tmax / half-life / Cmax: female, BALB/c, mouse
Method: A plasma pharmacokinetics and liver distribution study of selected compounds, including Pyrrolopyridine-008 (2015-foleyc-216), Pyrrolopyridine-D20-ent (2015-foleyc-217), and Pyrrolopyridine-M03 (2015-foleyc-218), in female BALB/c mice was conducted following a single intraperitoneal and oral administration. […] The blood samples were collected from a set of […] mice at each time point in labeled micro centrifuge tube containing K2EDTA as anticoagulant. Plasma samples were separated by centrifugation at 4000 rpm for 10 min and stored below −70° C. until bioanalysis. After collection of blood sample, animals were humanely euthanized by carbon dioxide asphyxiation to collect liver from Group 1 and Group 2 at all the time points. The collected tissues were rinsed in PBS and were homogenized with nine times of liver weight in ice cold phosphate buffer saline (pH 7.4) and stored below −70° C. until bio-analysis. Total homogenate volume was ten times the tissue weight. All samples were processed for analysis by protein precipitation using acetonitrile and analyzed with fit-for-purpose LC-MS/MS method (LLOQ: 2.01 ng/mL for plasma and 50.30 ng/g for liver). Pharmacokinetic parameters were calculated using the non-compartmental analysis tool of Phoenix WinNonlin® (Version 6.3).

[4] = ip, Dose: 100 mg/kg, liver, read-out: PK (ip, plasma/liver) AUCinf, liver
[5] = ip, Dose: 100 mg/kg, liver, read-out: PK (ip, plasma/liver) Tmax, liver
[6] = ip, Dose: 100 mg/kg, liver, read-out: PK (ip, plasma/liver) t1/2, liver (converted)
[7] = ip, Dose: 100 mg/kg, plasma, read-out: PK (ip, plasma/liver) AUCinf, plasma
[8] = ip, Dose: 100 mg/kg, plasma, read-out: PK (ip, plasma/liver) Cmax, plasma
[9] = ip, Dose: 100 mg/kg, plasma, read-out: PK (ip, plasma/liver) Tmax, plasma
[10] = ip, Dose: 100 mg/kg, plasma, read-out: PK (ip, plasma/liver) t1/2, plasma (converted)
[11] = po, Dose: 100 mg/kg, liver, read-out: PK (po, plasma/liver) Area under the curve (AUCinf), liver
[12] = po, Dose: 100 mg/kg, liver, read-out: PK (po, plasma/liver) Tmax, liver
[13] = po, Dose: 100 mg/kg, liver, read-out: PK (po, plasma/liver) t1/2, liver (converted)
[14] = po, Dose: 100 mg/kg, plasma, read-out: PK (po, plasma/liver) Area under the curve (AUCinf), plasma
[15] = po, Dose: 100 mg/kg, plasma, read-out: PK (po, plasma/liver) Cmax, plasma
[16] = po, Dose: 100 mg/kg, plasma, read-out: PK (po, plasma/liver) Tmax, plasma
[17] = po, Dose: 100 mg/kg, plasma, read-out: PK (po, plasma/liver) t1/2, plasma (converted)

`CC(C)(C)[S@@+]([O-])N1Cc2cc(C(N)=O)nc(-c3cccc(-c4cccnc4)c3)c2[C@H]1CCO` [2015-foleyc-247] showed an EC50 [1] of 1.48 ± 0.14 µM and an EC50 [2] of over 100 µM.

With `CC(C)(C)[S@+]([O-])N1Cc2cc(C(=O)NCc3ccc4c(c3)OCO4)nc(-c3cccc(-c4cccnc4)c3)c2[C@@H]1CCO` [ent-Tan003-008] the EC50 [1] was 0.86 ± 0.08 µM.

Work on `CC(C)(C)[S@@+]([O-])N1Cc2cc(C(=O)NCC(F)(F)F)nc(-c3cccc(-c4cc5ccccc5o4)c3)c2[C@H]1CCO` [2015-foleyc-226, (R)-4-(3-(benzofuran-2-yl)phenyl)-2-((R)-tert-butylsulfinyl)-3-(2-hydroxyethyl)-N-(2,2,2-trifluoroethyl)-2,3-dihydro-1H-pyrrolo[3,4-c]pyridine-6-carboxamide] yielded an EC50 [1] of over 25 µM and an EC50 [2] of over 100 µM.

Work on `CC(C)(C)[S@@+]([O-])N1Cc2cc(C(=O)NCc3ccccc3F)nc(-c3cccc(-c4cc5ccccc5o4)c3)c2[C@H]1CCO` [2015-foleyc-220, (R)-4-(3-(benzofuran-2-yl)phenyl)-2-((R)-tert-butylsulfinyl)-N-(2-fluorobenzyl)-3-(2-hydroxyethyl)-2,3-dihydro-1H-pyrrolo[3,4-c]pyridine-6-carboxamide] yielded an EC50 [1] of over 25 µM and an EC50 [2] of over 100 µM.

In the case of `CC(C)NC(=O)N1Cc2cc(C(=O)NCc3ccc4c(c3)OCO4)nc(-c3cccc(-c4cc5ccccc5o4)c3)c2[C@H]1CCO` [2015-foleyc-241, (R)-N^6-(benzo[d][1,3]dioxol-5-ylmethyl)-4-(3-(benzofuran-2-yl)phenyl)-3-(2-hydroxyethyl)-N^2-isopropyl-1,3-dihydro-2H-pyrrolo[3,4-c]pyridine-2,6-dicarboxamide], the EC50 [1] is reported as 4.99 ± 0.59 µM and the EC50 [2] is reported as over 100 µM.

With `CC(C)NC(=O)N1Cc2cc(C(=O)NCc3ccccc3F)nc(-c3cccc(-c4cccnc4)c3)c2[C@H]1CCO` [2015-foleyc-254, (R)-N^6-(2-fluorobenzyl)-3-(2-hydroxyethyl)-N^2-isopropyl-4-(3-(pyridin-3-yl)phenyl)-1,3-dihydro-2H-pyrrolo[3,4-c]pyridine-2,6-dicarboxamide] the EC50 [1] was 9.95 ± 0.89 µM and the EC50 [2] was 71 µM.

For `CC(C)NC(=O)N1Cc2cc(C(=O)NCC(F)(F)F)nc(-c3ccccc3)c2[C@H]1CCO` [2015-foleyc-267, (R)-3-(2-hydroxyethyl)-N^2-isopropyl-4-phenyl-N^6-(2,2,2-trifluoroethyl)-1,3-dihydro-2H-pyrrolo[3,4-c]pyridine-2,6-dicarboxamide], the EC50 [1] was 3.5 ± 0.97 µM and the EC50 [2] was over 100 µM.

In the case of `CC(C)(C)[S@@+]([O-])N1Cc2cc(C(=O)NCc3ccc4c(c3)OCO4)nc(-c3cccc(-c4cccnc4)c3)c2[C@H]1CCO` [drawing 329], the “Relative Bioavailability, Frel (AUCinf po / AUCinf ip)” value ([3]; Dose: 100 mg/kg) is reported as 49%, the AUC(0-inf) [3, 4] is reported as 667 µM·h and the Tmax [3, 5] is reported as 0.5 h. It also gave a half-life [3, 6] of 3.5 h, an AUC(0-inf) [3, 7] of 158 µM·h and a Cmax [3, 8] of 33.4 µM. The Tmax [3, 9] was 0.5 h, the half-life [3, 10] was 2.4 h and the AUC(0-inf) [3, 11] was 238 µM·h. The Tmax [3, 12] was 4 h, the half-life [3, 13] was 16.9 h and the AUC(0-inf) [3, 14] was 77.1 µM·h. For the same molecule, the Cmax [3, 15] was 27.6 µM, the Tmax [3, 16] was 1 h and the half-life [3, 17] was 1.1 h. For the same molecule, the “PK (ip, plasma/liver) Cmax, liver” value ([3]; ip, Dose: 100 mg/kg, liver) was 87.6 µM and the “PK (po, plasma/liver) Cmax, liver” value ([3]; po, Dose: 100 mg/kg, liver) was 39.6 µM.

Molecule `CC(C)NC(=O)N1Cc2cc(C(N)=O)nc(-c3cccc(-c4cc5ccccc5o4)c3)c2[C@H]1CCO` [2015-foleyc-248, (R)-4-(3-(benzofuran-2-yl)phenyl)-3-(2-hydroxyethyl)-N^2-isopropyl-1,3-dihydro-2H-pyrrolo[3,4-c]pyridine-2,6-dicarboxamide] has an EC50 [1] of over 25 µM and an EC50 [2] of over 100 µM.

In the case of `CC(C)(C)[S@@+]([O-])N1Cc2cc(C(=O)NCC(F)(F)F)nc(-c3cccc(-c4cccnc4)c3)c2[C@H]1CCO` [2015-foleyc-237, (R)-2-((R)-tert-butylsulfinyl)-3-(2-hydroxyethyl)-4-(3-(pyridin-3-yl)phenyl)-N-(2,2,2-trifluoroethyl)-2,3-dihydro-1H-pyrrolo[3,4-c]pyridine-6-carboxamide], the EC50 [1] is reported as 5.84 ± 0.94 µM and the EC50 [2] is reported as over 100 µM.

In the case of `CC(C)NC(=O)N1Cc2cc(C(=O)NCC(F)(F)F)nc(-c3cccc(-c4cc5ccccc5o4)c3)c2[C@H]1CCO` [drawing 328], the “Relative Bioavailability, Frel (AUCinf po / AUCinf ip)” value ([3]; Dose: 50 mg/kg) is reported as 57%, the AUC(0-inf) ([3]; ip, Dose: 50 mg/kg, liver, read-out: PK (ip, plasma/liver) AUCinf, liver) is reported as 186 µM·h and the Tmax ([3]; ip, Dose: 50 mg/kg, liver, read-out: PK (ip, plasma/liver) Tmax, liver) is reported as 0.1 h. It also gave a half-life ([3]; ip, Dose: 50 mg/kg, liver, read-out: PK (ip, plasma/liver) t1/2, liver (converted)) of 2.2 h, an AUC(0-inf) ([3]; ip, Dose: 50 mg/kg, plasma, read-out: PK (ip, plasma/liver) AUCinf, plasma) of 52.7 µM·h and a Cmax ([3]; ip, Dose: 50 mg/kg, plasma, read-out: PK (ip, plasma/liver) Cmax, plasma) of 14 µM. It also gave a Tmax ([3]; ip, Dose: 50 mg/kg, plasma, read-out: PK (ip, plasma/liver) Tmax, plasma) of 1 h, a half-life ([3]; ip, Dose: 50 mg/kg, plasma, read-out: PK (ip, plasma/liver) t1/2, plasma (converted)) of 1.2 h and an AUC(0-inf) ([3]; po, Dose: 50 mg/kg, liver, read-out: PK (po, plasma/liver) Area under the curve (AUCinf), liver) of 108 µM·h. It also gave a Tmax ([3]; po, Dose: 50 mg/kg, liver, read-out: PK (po, plasma/liver) Tmax, liver) of 0.25 h, a half-life ([3]; po, Dose: 50 mg/kg, liver, read-out: PK (po, plasma/liver) t1/2, liver (converted)) of 3.1 h and an AUC(0-inf) ([3]; po, Dose: 50 mg/kg, plasma, read-out: PK (po, plasma/liver) Area under the curve (AUCinf), plasma) of 29.9 µM·h. For the same molecule, the Cmax ([3]; po, Dose: 50 mg/kg, plasma, read-out: PK (po, plasma/liver) Cmax, plasma) was 10.9 µM, the Tmax ([3]; po, Dose: 50 mg/kg, plasma, read-out: PK (po, plasma/liver) Tmax, plasma) was 0.25 h and the half-life ([3]; po, Dose: 50 mg/kg, plasma, read-out: PK (po, plasma/liver) t1/2, plasma (converted)) was 8.2 h. For the same molecule, the “PK (ip, plasma/liver) Cmax, liver” value ([3]; ip, Dose: 50 mg/kg, liver) was 58.6 µM and the “PK (po, plasma/liver) Cmax, liver” value ([3]; po, Dose: 50 mg/kg, liver) was 53.8 µM.

With `CC(C)(C)[S@@+]([O-])N1Cc2cc(C(=O)NCc3ccccc3F)nc(-c3cccc(-c4cccnc4)c3)c2[C@H]1CCO` [drawing 330] the “Relative Bioavailability, Frel (AUCinf po / AUCinf ip)” value ([3]; Dose: 100 mg/kg) was 22%, the AUC(0-inf) [3, 4] was 306 µM·h and the Tmax [3, 5] was 0.25 h. For the same molecule, the half-life [3, 6] was 4.6 h, the AUC(0-inf) [3, 7] was 168 µM·h and the Cmax [3, 8] was 72.6 µM. For the same molecule, the Tmax [3, 9] was 1 h, the half-life [3, 10] was 1.9 h and the AUC(0-inf) [3, 11] was 125 µM·h. It also gave a Tmax [3, 12] of 0.5 h, a half-life [3, 13] of 6.4 h and an AUC(0-inf) [3, 14] of 36.7 µM·h. For the same molecule, the Cmax [3, 15] was 56.4 µM, the Tmax [3, 16] was 0.5 h and the half-life [3, 17] was 2.1 h. The “PK (ip, plasma/liver) Cmax, liver” value ([3]; ip, Dose: 100 mg/kg, liver) was 111.3 µM and the “PK (po, plasma/liver) Cmax, liver” value ([3]; po, Dose: 100 mg/kg, liver) was 49.2 µM.
